The values that follow come from patent publication US7947708B2, “Compounds modulating C-kit activity” (Plexxikon, Inc., priority 2004, dated 2011).

Assay [1] deals with cells with activating c-Kit mutations in the catalytic region. Conditions: Ma et al., 2002; cited from earlier work.
Assay [2] relates to M-07e cell line. In words: M-07e cell proliferation stimulated by SCF (CellTiter-Glo growth inhibition). The assay is classed as cell-based. The conditions noted are these: 72 h, SCF 100 ng/ml, three days, CellTiter-Glo luminescence, read-out: IC50, growth inhibition of SCF stimulated M-07e cells.
Protocol: This inhibition is measured by the effect of compound concentration on cell growth to assess IC50 values. M-07e cells were seeded at 5×10^4 cells per well of a 96 well cell culture plate in 50 μl of cell culture medium of Iscove's Medium 1× (MOD, CellGro Mediatech catalog #15-016-CV) supplemented with 10% FBS (HyClone catalog #SH30071.03). […] Cells were also treated with staurosporine as a positive control. Cells were stimulated by adding 20 μl of 600 ng/ml SCF to a final concentration of 100 ng/ml (Biosource International SCF kit ligand catalog #PHC2115) in cell culture medium. The cells were incubated at 37° C., 5% CO2 for three days. CellTiter-Glo Buffer (Promega Cell Viability Assay catalog #G7573) and substrate were equilibrated to room temperature, and enzyme/substrate Recombinant Firefly Luciferase/Beetle Luciferin was reconstituted. The cell plates were equilibrated to room temperature for 30 minutes, then lysed by addition of an equivalent volume of the Celltiter-Glo Reagent. […] The plates were read on a Victor Wallac II using Luminescence protocol modified to read 0.1 s per well. The luminescence reading assesses the ATP content, which correlates directly with cell number such that the reading as a function of compound concentration is used to determine the IC50 value.

pIC50: −log10 of the molar value.

On to `Cc1ccc(NC(=O)c2ccc(CN3CCN(C)CC3)cc2)cc1Nc1nccc(-c2cccnc2)n1` [ST1571], for which, in assay [1], the “inhibition of cells with c-Kit mutations in the catalytic region” value was “did not inhibit the cells”.

Usually pIC50 stands for the IC50 on a negative log10 scale, so that one unit is a factor of ten. As to `FC(F)(F)c1ccc(CNc2ccc(Cc3c[nH]c4ncccc34)cn2)cc1` [Compound 1-3, [5-(1H-Pyrrolo[2,3-b]pyridin-3-ylmethyl)-pyridin-2-yl]-(4-trifluoromethyl-benzyl)-amine], in assay [2], the pIC50 is above 6.00.
